Data reported in patent US20240270821A1, “GIP/GLP1/GCG TRI-RECEPTOR AGONISTS AND USES THEREOF” (priority 2023, published 2024).
Read-outs that look alike come from different tables or passages of the source. Starred links: 1 amine or outer side, 2 acyl side, 3 side chain; linkers in the order of their positions; H or OH if unused. Non-standard residues stand in square brackets, D forms with d. Residues, ends and D or L forms follow the SMILES beside them. Groups on a side chain read outwards from the residue. No end group written: not given here. *: point of attachment. C18 diacid = O=C(O)CCCCCCCCCCCCCCCCC(=O)*; αMePhe(2-F) = C[C@](N)(Cc1ccccc1F)C(=O)O; γGlu = O=C(O)[C@H](CCC(=O)[*:2])N[*:1]; αMe4Pal = C[C@](N)(Cc1ccncc1)C(=O)O; αMeY = C[C@](N)(Cc1ccc(O)cc1)C(=O)O; αMeF = C[C@](N)(Cc1ccccc1)C(=O)O; 4Pal = N[C@@H](Cc1ccncc1)C(=O)O; αMeL = CC(C)C[C@](C)(N)C(=O)O; αMeS = C[C@](N)(CO)C(=O)O; Orn = NCCC[C@H](N)C(=O)O; AEEA = NCCOCCOCC(=O)O; Aib = CC(C)(N)C(=O)O

Tests used:
Assay type in all cases: cell-based
hGIPR [1] = target: T1, hGIPR (Homo sapiens, UniProt P48546); assay: Functional cAMP activity in the presence of 1% HSA; details: read-out: cAMP Rel EC50, hGIPR
T1 sequence (P48546 22-466): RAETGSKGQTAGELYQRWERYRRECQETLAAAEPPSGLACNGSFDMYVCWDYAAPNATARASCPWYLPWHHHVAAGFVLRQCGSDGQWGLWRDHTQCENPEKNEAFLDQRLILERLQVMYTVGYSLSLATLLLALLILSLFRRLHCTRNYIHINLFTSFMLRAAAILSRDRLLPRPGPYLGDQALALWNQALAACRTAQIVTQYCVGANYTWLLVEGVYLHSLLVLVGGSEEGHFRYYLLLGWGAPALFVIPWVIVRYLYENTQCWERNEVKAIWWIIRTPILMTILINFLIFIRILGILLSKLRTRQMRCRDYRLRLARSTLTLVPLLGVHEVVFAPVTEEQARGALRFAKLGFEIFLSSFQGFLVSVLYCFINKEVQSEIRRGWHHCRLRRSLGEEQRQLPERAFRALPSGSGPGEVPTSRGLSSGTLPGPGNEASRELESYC

hGLP-1R [2] = target: T2, hGLP-1R (Homo sapiens, UniProt P43220); assay: Functional cAMP activity in the presence of 1% HSA; details: read-out: cAMP Rel EC50, hGLP-1R
T2 sequence (P43220 24-463): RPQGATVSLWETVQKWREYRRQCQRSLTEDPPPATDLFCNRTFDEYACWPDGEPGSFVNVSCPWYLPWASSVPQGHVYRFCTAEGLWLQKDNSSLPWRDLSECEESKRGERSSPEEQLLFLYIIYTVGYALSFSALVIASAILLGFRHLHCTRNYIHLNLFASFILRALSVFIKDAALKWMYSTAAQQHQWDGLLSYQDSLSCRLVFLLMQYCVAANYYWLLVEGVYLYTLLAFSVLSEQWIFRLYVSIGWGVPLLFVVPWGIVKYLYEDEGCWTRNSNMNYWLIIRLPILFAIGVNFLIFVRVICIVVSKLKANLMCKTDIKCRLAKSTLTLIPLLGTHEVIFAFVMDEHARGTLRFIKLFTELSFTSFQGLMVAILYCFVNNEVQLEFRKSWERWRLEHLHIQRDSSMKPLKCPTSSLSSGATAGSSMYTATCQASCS

human GcgR = human GcgR (Homo sapiens, UniProt P47871); assay: Functional cAMP activity in the presence of 1% HSA; details: read-out: cAMP Rel EC50, hGcgR
Sequence of human GcgR (P47871 26-477): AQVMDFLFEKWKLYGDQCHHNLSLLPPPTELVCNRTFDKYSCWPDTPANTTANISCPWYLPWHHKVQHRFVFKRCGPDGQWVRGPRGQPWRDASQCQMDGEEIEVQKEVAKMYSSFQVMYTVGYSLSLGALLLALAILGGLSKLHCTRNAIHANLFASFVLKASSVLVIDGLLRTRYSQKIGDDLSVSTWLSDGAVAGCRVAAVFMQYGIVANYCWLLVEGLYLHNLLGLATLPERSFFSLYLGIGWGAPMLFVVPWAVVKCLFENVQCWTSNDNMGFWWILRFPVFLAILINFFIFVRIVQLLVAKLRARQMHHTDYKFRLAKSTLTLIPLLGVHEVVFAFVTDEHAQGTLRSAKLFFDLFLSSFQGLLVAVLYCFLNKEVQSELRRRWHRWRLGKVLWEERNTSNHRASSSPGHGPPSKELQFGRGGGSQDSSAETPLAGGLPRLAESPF

hGIPR [3] = target: T1, hGIPR; assay: Functional cAMP activation in the presence of 0.1% casein (no HSA); details: read-out: Relative cAMP EC50, hGIPR;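 as to Relative cAMP EC50, hGIPR: intracellular cAMP rise after 30 min at 37 °C read by HTRF against a standard curve, scaled between buffer alone (0%) and top control ligand concentration (100%), four-parameter fit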;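 as to Relative cAMP EC50, hGLP-1R: intracellular cAMP rise after 30 min at 37 °C read by HTRF, normalized between buffer only (0%) and maximal control ligand (100%), four-parameter variable-slope fit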;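 as to Relative cAMP EC50, hGcgR: intracellular cAMP rise after 30 min at 37 °C, read by HTRF against a cAMP standard curve, scaled from buffer only (0%) to maximal control ligand response (100%)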
hGLP-1R [4] = target: T2, hGLP-1R; assay: as above; details: read-out: Relative cAMP EC50, hGLP-1R
hGcgR = hGcgR (Homo sapiens, UniProt P47871); assay: as above; details: read-out: Relative cAMP EC50, hGcgR;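 also: intracellular cAMP rise after 30 min at 37 °C, read by HTRF against a cAMP standard curve, scaled from buffer only (0%) to maximal control ligand response (100%)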
Sequence of hGcgR (P47871 26-477): as above

[5] = in the presence of 0.1% casein (no HSA), geometric mean
[6] = HEK-293 clonal cell line, in the presence of 1% HSA, geometric mean of relative EC50
[7] = 0.1% casein, no HSA, geometric mean

Row | Compound | EC50 (hGIPR [1]) [nM] | EC50 (hGLP-1R [2]) [nM] | EC50 (human GcgR) [nM] | EC50 (hGIPR [3]; [5]) [nM] | EC50 (hGLP-1R [4]; [5]) [nM] | EC50 (hGcgR; [5]) [nM] | EC50 (hGIPR [1]; [6]) [nM] | EC50 (hGLP-1R [2]; [6]) [nM] | EC50 (human GcgR; [6]) [nM] | EC50 (hGIPR [3]) [nM] | EC50 (hGLP-1R [4]) [nM] | EC50 (hGcgR) [nM] | EC50 (hGIPR [3]; [7]) [nM] | EC50 (hGLP-1R [4]; [7]) [nM] | EC50 (hGcgR; [7]) [nM]
1 | CC[C@H](C)[C@H](NC(=O)[C@H](Cc1ccccc1)NC(=O)[C@H](CCCN)NC(=O)C(C)(C)NC(=O)[C@H](CCC(N)=O)NC(=O)[C@H](C)NC(=O)[C@H](CCCCNC(=O)CC[C@H](NC(=O)CC[C@H](NC(=O)CCCCCCCCCCCCCCCCC(=O)O)C(=O)O)C(=O)O)NC(=O)[C@H](CCCN)NC(=O)[C@H](CC(=O)O)NC(=O)[C@H](CC(C)C)NC(=O)[C@](C)(CC(C)C)NC(=O)[C@@H](NC(=O)[C@H](CO)NC(=O)[C@H](Cc1ccncc1)NC(=O)[C@H](CC(=O)O)NC(=O)[C@H](CO)NC(=O)[C@@H](NC(=O)[C@](C)(Cc1ccccc1F)NC(=O)[C@@H](NC(=O)CNC(=O)[C@H](CCC(N)=O)NC(=O)C(C)(C)NC(=O)[C@@H](N)Cc1ccc(O)cc1)[C@@H](C)O)[C@@H](C)O)[C@@H](C)CC)C(=O)N[C@H](CCC(=O)O)C(=O)N[C@@](C)(Cc1ccc(O)cc1)C(=O)N[C@@H](CC(C)C)C(=O)N[C@@H](CC(C)C)C(=O)N[C@@H](CCC(=O)O)C(=O)NCC(=O)NCC(=O)N1CCC[C@H]1C(=O)N[C@@H](CO)C(=O)N[C@@H](CO)C(=O)NCC(=O)N[C@@H](CCC(=O)O)C(=O)N1CCC[C@H]1C(=O)N1CCC[C@H]1C(=O)N1CCC[C@H]1C(=O)N[C@@H](CO)C(N)=O [Example 371] | 1.47 | 47.4 | 463 | 0.0128 | 0.327 | 4.46 | – | – | – | – | – | – | – | – | –
2 | H-Y[Aib]QGTFTSDFS[Orn][αMeL]LDKK([AEEA-γGlu-C18 diacid])AQ[αMe4Pal]DFIEYLIE[Aib]GPSSGAPPPSGS-NH2 [Example 880] | 76.2 | 943 | 562 | 0.116 | 7.69 | 3.53 | – | – | – | – | – | – | – | – | –
3 | Y[Aib]QGT[αMeF]TSD[4Pal][αMeS]I[αMeL]LD[Orn]K([AEEA-γGlu-C18 diacid])AQ[αMe4Pal]EFI[dE][αMeY]LIEGGPSSGAPPPSGGGE-NH2 [Example 1168] | 0.999 | 65.4 | 364 | 0.00839 | 0.422 | 2.63 | – | – | – | – | – | – | – | – | –
4 | H-Y[Aib]QGTFTSDFS[Orn][αMeL]LD[Orn]K([γGlu-γGlu-C18 diacid])AQ[Aib]AFIEYLLEGGPSSGAPPPGGSEE-NH2 [Example 1048] | – | – | – | 0.356 | 6.23 | 6.9 | 108 | 1900 | 1930 | – | – | – | – | – | –
5 | H-Y[Aib]QGT[αMePhe(2-F)]TSD[4Pal]SI[αMeL]LD[Orn]K([AEEA-γGlu-C18 diacid])AQ[αMe4Pal][Orn]FI[dE][αMeY]LIEGGPSSGEPPPSGS-NH2 [Example 706] | 0.913 | 23.7 | 240 | – | – | – | – | – | – | 0.00911 | 0.19 | 2.18 | – | – | –
6 | H-Y[Aib]QGTFTSD[4Pal]S[Orn][αMeL]LD[Orn]K([γGlu-γGlu-C18 diacid])AQ[αMe4Pal][Orn]FIE[αMeY]LLAGGPSSGAPPPSGSEE-NH2 [Example 997] | – | – | – | 0.373 | 20.7 | 5.01 | 27.8 | 1880 | 527 | – | – | – | – | – | –
7 | H-Y[Aib]QGTFTSD[4Pal]SK[αMeL]LDKK([AEEA-γGlu-C18 diacid])AQ[αMe4Pal]AFIE[αMe4Pal]LIE[Aib]GPSSGAPPPSGS-NH2 [Example 916] | 4.78 | 166 | 158 | 0.0715 | 1.38 | 1.09 | – | – | – | – | – | – | – | – | –
8 | H-Y[Aib]QGT[αMePhe(2-F)]TSD[4Pal]SI[αMeL]LD[Orn][Orn]([γGlu-γGlu-C18 diacid])AQ[αMe4Pal][Orn]FI[dE][αMeY]LIEGGPSSGEPPPETE-NH2 [Example 1209] | 0.565 | 37.7 | 124 | – | – | – | – | – | – | – | – | – | 0.00819 | 0.41 | 0.97
9 | Y[Aib]QGT[αMePhe(2-F)]TSD[4Pal]SILLDKK([γGlu-γGlu-C18 diacid])AQ[Aib]AFIEWLQEGGPSSGAPPPSGTEE-NH2 [Example 578] | 3.73 | 54.7 | 781 | – | – | – | – | – | – | 0.0208 | 0.233 | 6.26 | – | – | –
10 | Y[Aib]QGT[αMePhe(2-F)]TSD[4Pal][αMeS]ILLD[Orn]K([γGlu-γGlu-C18 diacid])AQ[Aib][Orn]FI[dE][αMeY]LQEGGPSSGEPPPEGAE-NH2 [Example 546] | 11.9 | 34.4 | 225 | – | – | – | – | – | – | 0.25 | 0.517 | 3.67 | – | – | –
11 | H-Y[Aib]QGTFTSD[4Pal]SQ[αMeL]LDKK([AEEA-γGlu-C18 diacid])AQ[αMe4Pal]AFIEYLIE[Aib]GPSSGAPPPSGE-NH2 [Example 881] | 30.1 | 321 | 507 | 0.211 | 2.87 | 4.09 | – | – | – | – | – | – | – | – | –
12 | Y[Aib]QGTFTSD[4Pal]SQ[αMeL]LD[Orn]K([AEEA-γGlu-C18 diacid])AQ[αMe4Pal]QFIE[αMeY]LIE[Aib]GPSSGEPPPSGSEE-NH2 [Example 1098] | 31.2 | 184 | 994 | 0.201 | 1.22 | 6.2 | – | – | – | – | – | – | – | – | –
13 | H-Y[Aib]QGTFTSD[4Pal]SQ[αMeL]LDKK([γGlu-γGlu-C18 diacid])AQ[αMe4Pal]AFIE[αMe4Pal]LIE[Aib]GPSSGEPPPSGSEE-NH2 [Example 1125] | 3.95 | 243 | 264 | 0.173 | 8.26 | 5.83 | – | – | – | – | – | – | – | – | –
14 | Y[Aib]QGT[αMePhe(2-F)]TSD[4Pal][αMeS]I[αMeL]LD[Orn]K([γGlu-γGlu-C18 diacid])AQ[αMe4Pal]EFI[dE][αMeY]LIEGGPSSGAPPPEGGGEEE-NH2 [Example 1221] | 0.814 | 57.8 | 185 | – | – | – | – | – | – | – | – | – | 0.0111 | 0.839 | 2.27
15 | H-Y[Aib]QGT[αMePhe(2-F)]TSD[4Pal][αMeS]I[αMeL]LD[Orn]K([AEEA-AEEA-γGlu-C18 diacid])AQ[Aib][Orn]FIEYLIEGGPSSGEPPPSEG-NH2 [Example 491] | 0.688 | 9.55 | 159 | – | – | – | – | – | – | 0.0126 | 0.17 | 1.58 | – | – | –
16 | CC[C@H](C)[C@H](NC(=O)[C@H](Cc1ccccc1)NC(=O)[C@H](CCCN)NC(=O)C(C)(C)NC(=O)[C@H](CCC(N)=O)NC(=O)[C@H](C)NC(=O)[C@H](CCCCNC(=O)COCCOCCNC(=O)CC[C@H](NC(=O)CC[C@H](NC(=O)CCCCCCCCCCCCCCCCC(=O)O)C(=O)O)C(=O)O)NC(=O)[C@H](CCCN)NC(=O)[C@H](CC(=O)O)NC(=O)[C@H](CC(C)C)NC(=O)[C@](C)(CC(C)C)NC(=O)[C@@H](NC(=O)[C@](C)(CO)NC(=O)[C@H](Cc1ccncc1)NC(=O)[C@H](CC(=O)O)NC(=O)[C@H](CO)NC(=O)[C@@H](NC(=O)[C@](C)(Cc1ccccc1F)NC(=O)[C@@H](NC(=O)CNC(=O)[C@H](CCC(N)=O)NC(=O)C(C)(C)NC(=O)[C@@H](N)Cc1ccc(O)cc1)[C@@H](C)O)[C@@H](C)O)[C@@H](C)CC)C(=O)N[C@H](CCC(=O)O)C(=O)N[C@@](C)(Cc1ccc(O)cc1)C(=O)N[C@@H](CC(C)C)C(=O)N[C@@H](CC(C)C)C(=O)N[C@@H](CCC(=O)O)C(=O)NCC(=O)NCC(=O)N1CCC[C@H]1C(=O)N[C@@H](CO)C(=O)N[C@@H](CO)C(=O)NCC(=O)N[C@@H](CCC(=O)O)C(=O)N1CCC[C@H]1C(=O)N1CCC[C@H]1C(=O)N1CCC[C@H]1C(=O)N[C@@H](CO)C(N)=O [Example 376] (H-Y[Aib]QGT[αMePhe(2-F)]TSD[4Pal][αMeS]I[αMeL]LD[Orn]K([AEEA-γGlu-γGlu-C18 diacid])AQ[Aib][Orn]FI[dE][αMeY]LLEGGPSSGEPPPS-NH2) | 5.42 | 26 | 115 | 0.0354 | 0.445 | 1.71 | – | – | – | – | – | – | – | – | –
17 | H-Y[Aib]QGTFTSD[4Pal]SQ[αMeL]LDKK([AEEA-γGlu-C18 diacid])AQ[αMe4Pal]AFIEYLIE[Aib]GPSSGAPPPSGSGE-NH2 [Example 888] | 30.8 | 238 | 567 | 0.168 | 5.02 | 30.1 | – | – | – | – | – | – | – | – | –
